Read-outs that look alike come from different tables or passages of the source. Where a SMILES comes first, the peptide text is derived from it. Where no end group is shown, it is not given here. [ ]: non-standard residue; d: D form. The star is where a group is joined. Hexanoyl = CCCCCC(=O)*; Aib = CC(C)(N)C(=O)O
Experiments:
rat VPAC1 receptor = molecular target: T1, rat VPAC1 receptor (Rattus norvegicus, UniProt P30083); test: Competition binding on recombinant rat VPAC1 receptor expressed in CHO cells, 125I-VIP tracer; parameters: expressed in transfected cells; host or cells: CHO cells, crude membranes
T1 sequence (P30083 31-459): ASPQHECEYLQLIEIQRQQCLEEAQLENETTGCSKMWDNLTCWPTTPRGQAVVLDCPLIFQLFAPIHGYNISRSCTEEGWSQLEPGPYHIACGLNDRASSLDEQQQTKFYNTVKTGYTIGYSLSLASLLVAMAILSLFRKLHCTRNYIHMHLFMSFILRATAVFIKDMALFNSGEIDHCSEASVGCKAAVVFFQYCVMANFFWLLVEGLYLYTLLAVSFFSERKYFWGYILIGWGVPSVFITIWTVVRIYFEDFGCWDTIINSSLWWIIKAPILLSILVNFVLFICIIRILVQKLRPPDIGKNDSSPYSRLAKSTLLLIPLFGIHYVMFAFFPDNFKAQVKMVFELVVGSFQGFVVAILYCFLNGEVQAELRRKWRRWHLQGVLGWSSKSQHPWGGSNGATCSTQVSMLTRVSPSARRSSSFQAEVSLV
Experimental: (§2) The peptide samples are stored frozen and thawed prior to the assay. […] All peptide sample and reference compound dilutions are performed in PBS. Peptides solutions are kept in the cold room for four days. Stock solutions are stored at −80° C. New dilution curves are prepared every week.
(§3) Each assay is done in duplicate and performed on two different membrane preparations.

[1] = Rat serum stability studies (remaining active peptide by DiscoveRx cAMP on CHO-VPAC2 cells); format: in vitro ADME
Procedure, shortened: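 EC50 from a DiscoveRx cAMP read-out on CHO-VPAC2 cells indexes how much peptide stays active after 18 h in rat serum at 37° C without aprotinin, against an aprotinin-protected 4° C aliquot.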

rat VPAC2 receptor [2] = molecular target: T2, rat VPAC2 receptor (Rattus norvegicus, UniProt P35000); test: Competition binding on recombinant rat VPAC2 receptor expressed in CHO cells, 125I-RO 25-1553 tracer; parameters: expressed in transfected cells; host or cells: CHO cells, crude membranes; details: for VPAC1/VPAC2 ratio between the IC50 values (index of selectivity): rat receptors, binding
T2 sequence (P35000 23-437): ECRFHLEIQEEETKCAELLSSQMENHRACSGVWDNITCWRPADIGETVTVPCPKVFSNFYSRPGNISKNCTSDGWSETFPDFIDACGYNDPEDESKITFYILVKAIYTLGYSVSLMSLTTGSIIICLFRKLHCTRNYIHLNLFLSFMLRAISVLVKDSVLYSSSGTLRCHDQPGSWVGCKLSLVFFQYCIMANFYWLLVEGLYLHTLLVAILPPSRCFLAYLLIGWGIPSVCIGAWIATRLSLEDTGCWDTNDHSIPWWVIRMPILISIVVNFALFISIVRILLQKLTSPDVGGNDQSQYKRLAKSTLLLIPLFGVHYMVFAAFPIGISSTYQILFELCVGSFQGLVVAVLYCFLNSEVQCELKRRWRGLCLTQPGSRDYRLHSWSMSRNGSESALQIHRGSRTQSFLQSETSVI
Experimental: as §2, §3

rat PAC1 receptor = molecular target: T3, rat PAC1 receptor (Rattus norvegicus, UniProt P32215); test: Binding on recombinant rat PAC1 receptor expressed in CHO cells; details: maximal concentration tested 10 μM peptide
T3 construct: expressed in transfected cells; host or cells: CHO cells, crude membranes
T3 sequence (P32215 20-523): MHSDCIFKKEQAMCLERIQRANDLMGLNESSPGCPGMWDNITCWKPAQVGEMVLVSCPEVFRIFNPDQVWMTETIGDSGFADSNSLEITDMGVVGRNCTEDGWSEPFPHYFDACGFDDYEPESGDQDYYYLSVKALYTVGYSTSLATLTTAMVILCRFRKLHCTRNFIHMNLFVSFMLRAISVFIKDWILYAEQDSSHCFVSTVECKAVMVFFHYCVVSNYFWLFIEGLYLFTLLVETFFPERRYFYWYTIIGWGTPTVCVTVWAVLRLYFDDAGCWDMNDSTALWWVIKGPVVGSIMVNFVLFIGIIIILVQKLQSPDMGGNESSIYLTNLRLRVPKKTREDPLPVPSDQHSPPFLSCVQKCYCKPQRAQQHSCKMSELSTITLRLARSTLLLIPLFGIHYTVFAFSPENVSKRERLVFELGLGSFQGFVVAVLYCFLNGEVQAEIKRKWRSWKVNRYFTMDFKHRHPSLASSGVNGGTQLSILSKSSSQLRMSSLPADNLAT
Experimental: (§1) All studies are performed on crude membranes prepared from three different cell cultures expressing the different recombinant receptors, using methodology that is known in the literature. Duplicate values are obtained for each assay.

rat VPAC2 receptor [3] = molecular target: T2, rat VPAC2 receptor; test: Adenylate cyclase activation on membrane preparations expressing rat VPAC2 receptor; format: biochemical; parameters: expressed in transfected cells; host or cells: CHO cells, crude membranes; details: for VPAC2 cAMP max: maximal increase in cyclic AMP production (over basal) per minute and per mg protein; for VPAC1/VPAC2 ratio of EC50: rat receptors
Experimental: as §1
The selectivity of the VPAC2 receptor peptide agonists of the present invention are tested on the rat VPAC1 and VPAC2 receptors recombinantly expressed in CHO cells. The compound of the invention were evaluated in receptor binding & adenylate cyclase activation assays.
Dose-effect curves of adenylate cyclase activation were generated using the VPAC2 receptor peptide agonists (10^−11 to 10^−6 M, two concentrations per log) of the present invention.

rat VPAC2 receptor [4] = molecular target: T2, rat VPAC2 receptor; test: DiscoveRx in vitro potency, CHO-PO cells transiently transfected with rat VPAC 2 receptor DNA; format: cell-based; parameters: expressed in transfected cells; host or cells: CHO-PO, transient
Experimental: Also, the cells are washed twice. […] The stimuli are present for 30 minutes. Then, the assay buffer is gently removed.

in vivo = details: Wistar, rat, iv
Experimental: An IVGTT with glucose is given immediately after T=0 to 6 animals per condition. Samples are taken at 0, 2, 4, 6, and 10 minutes after injection.
For cell handling, Plate 50,000 cells/well and keep in culture over night. Wash cell twice in PBS and add 50 μl/well stimulation medium consisting of PBS+1.2 MgCl2, 1.3 CaCl2, 2 glucose and 0.5 IBMX. Incubate 15 minutes and add 50 μl/well of the plasma samples (see layout below). Incubate 30 minutes, remove the supernatant and proceed as normal with the DiscoveRx assay. Prepare plates in duplicate. Protease and peptidase inhibitor are present in all plasma samples.

[5] = IC50 of tracer inhibition, 125I-VIP, with standard error, read-out: RAT VPAC1 IC50 (log M) (converted)
[6] = IC50 of tracer inhibition, 125I-RO 25-1553, with standard error, read-out: RAT VPAC2 IC50 (log M) (converted)
[7] = adenylate cyclase activation, rat VPAC2 membranes, with standard error, read-out: VPAC2 EC50 (log M) (converted)

Molecule | IC50 (rat VPAC1 receptor) [nM] | Rat Serum Stability (estimated purity in % after 18 hours) ([1]; 10 μM peptide in rat serum, 37° C., 18 hours, versus 4° C. aliquot with aprotinin) [%] | IC50 (rat VPAC2 receptor [2]) [nM] | VPAC1/VPAC2 ratio between the IC50 values (index of selectivity) (rat VPAC2 receptor [2]) | binding (tracer displacement) (rat PAC1 receptor) | EC50 (rat VPAC2 receptor [3]) [nM] | VPAC2 cAMP max (rat VPAC2 receptor [3]) | VPAC1/VPAC2 ratio of EC50 (rat VPAC2 receptor [3]; adenylate cyclase activation) | EC50 (rat VPAC2 receptor [4]) [nM] | IC50 (rat VPAC1 receptor; [5]) [nM] | Rat Serum Stability (estimated purity in % after 18 hours) [1] [%] | IC50 (rat VPAC2 receptor [2]; [6]) [nM] | EC50 (rat VPAC2 receptor [3]; [7]) [nM] | AUC(0-t) (in vivo; 10 ug/kg) [nM·h] | Cmax (in vivo; 10 ug/kg) [nM] | half-life (in vivo; 10 ug/kg) [min] | AUC(0-t) (in vivo; 0.5 ug/kg) [nM·h] | Cmax (in vivo; 0.5 ug/kg) [nM] | half-life (in vivo; 0.5 ug/kg) [min] | Rat Serum Stability (Estimated purity in % after 72 hours) [1] [%]
H-MHSDAVFTDNYTRLRKQVAAKKYLQSIKNKRYGGPSSGAPPPS [Agonist P104] | 1760 | 1.01 | 1.8 | 977 | incomplete tracer displacement | 1.01 | 129 ± 19 | 184 |  |  |  |  |  |  |  |  |  |  |  | 
Hexanoyl-HSDAVFTDNYTRLR[Aib]QVAA[Aib]KYLQSIKNKRYGGPSSGAPPPS [Agonist P261] |  |  |  | 363 |  |  | 78.5 | 200 | 0.04 | 129 | 27.06 | 0.355 | 0.0631 | 0.898 | 12.1 | 3.2 |  |  |  | 
CCCCCC(=O)N[C@@H](Cc1c[nH]cn1)C(=O)N[C@@H](CO)C(=O)N[C@@H](CC(=O)O)C(=O)N[C@@H](C)C(=O)N[C@H](C(=O)N[C@@H](Cc1ccccc1)C(=O)N[C@H](C(=O)N[C@@H](CC(=O)O)C(=O)N[C@@H](CC(N)=O)C(=O)N[C@@H](Cc1ccc(O)cc1)C(=O)N[C@H](C(=O)N[C@@H](CCCNC(=N)N)C(=O)N[C@@H](CC(C)C)C(=O)N[C@@H](CCCNC(=N)N)C(=O)NC(C)(C)C(=O)N[C@@H](CCC(N)=O)C(=O)N[C@@H](CC(C)C)C(=O)N[C@@H](C)C(=O)N[C@@H](C)C(=O)NC(C)(C)C(=O)N[C@@H](CCCCN)C(=O)N[C@@H](Cc1ccc(O)cc1)C(=O)N[C@@H](CC(C)C)C(=O)N[C@@H](CCC(N)=O)C(=O)N[C@@H](CO)C(=O)N[C@H](C(=O)N[C@@H](CCCCN)C(=O)N[C@@H](CC(N)=O)C(=O)N[C@@H](CCCCN)C(=O)NCC(=O)NCC(=O)N1CCC[C@H]1C(=O)N[C@@H](CO)C(=O)N[C@@H](CO)C(=O)NCC(=O)N[C@@H](C)C(=O)N1CCC[C@H]1C(=O)N1CCC[C@H]1C(=O)N1CCC[C@H]1C(=O)N[C@@H](CO)C(=O)O)[C@@H](C)CC)[C@@H](C)O)[C@@H](C)O)C(C)C [Agonist P292] (Hexanoyl-HSDAVFTDNYTRLR[Aib]QLAA[Aib]KYLQSIKNKGGPSSGAPPPS-OH; C-terminus assumed) |  |  |  | 269 |  |  | 79.1 | 100 | 0.07 | 204 | 33.43 | 0.759 | 0.115 | 0.688 | 5.37 | 5.5 | 0.0167 | 0.12 | 15 | 
Hexanoyl-HSDAVFTDNYTRLRKQVAAKKYLQSIKNKRYGGPSSGAPPPS [Agonist P31] |  |  |  | 546 | incomplete tracer displacement |  | 134 ± 12 | 174 |  | 210 |  | 0.385 | 0.145 | 0.308 | 4.37 | 12 |  |  |  | 
Hexanoyl-HSDAVFTDNYTRLR[Aib]QVAAK[Aib]YLQSIKNKRYGGPSSGAPPPS [Agonist P264] |  |  |  |  |  |  |  |  | 0.1 |  | 19.22 |  |  | 0.06 | 0.96 | 1.3 |  |  |  | 0.9
Hexanoyl-HSDAVFTDNYTRLLAKLALQKYLQSIKNKRYGGPSSGAPPPS [Agonist P119] |  |  |  | 47 | incomplete tracer displacement |  | 133 ± 18 | 32 |  | 29.2 |  | 0.618 | 0.0912 |  |  |  |  |  |  | 
